Assay [1] relates to extracellular Aβ1-40 accumulation, SH-SY5Y cells. The assay is described as follows: Effect of each test sample on extracellular Aβ1-40 accumulation (Human Aβ1-40 immunoassay of the medium). The assay is classed as cell-based. How it is done:
Wild-type human neuroblastoma cells (SH-SY5Y) were cultured in Eagle's Minimum essential Medium (EMEM)/Ham's F12 medium (1:1 mixture) (containing 10% FBS, 10 units/ml penicillin, 10 μg/ml Streptomycin). Wild-type mouse neuroblastoma Neuro-2a cells were cultured in minimum essential medium (MEM) (containing 10% FBS, 10 units/ml penicillin, 10 μg/ml Streptomycin).
The medium of the wild-type human neuroblastoma SH-SY5Y cells in Example 1 were switched into chemical defined medium (EMEM/F12 medium (Cat. No. 12500-062), Hepes 5 mM, Glucose 0.6%, NaHCO3 3 mM, Glutamine 2.5 mM, Insulin 25 μg/ml, Transferin 100 μg/ml, Progestrone 20 nM, Putrescine 60 μM, Sodium selenite 30 nM, Heparin 2 μg/ml). Each well contained 1×10^5 SH-SY5Y cells in 300 μl of culture medium. Thirty minutes later, each well was treated with the test samples given in Table 1 respectively at a total concentration of 50 μg/ml for 24 hours. After that, the level of Aβ1-40 in the medium of each well was analyzed by Human Aβ1-40 immunoassay kits (Catalog #KHB3482 Invitrogen).
Human neuroblastoma SH-SY5Y cells cause extracellular accumulation of Aβ. […] The results were shown in mean ± standard deviation (SD) form. Significant difference between the Vehicle control group and the test sample-treated groups were indicated by * * * , P<0.001.

The target in another assay is Human Aβ1-42 (Homo sapiens, UniProt P05067). The assay is described as follows: Effect of each test sample on Aβ1-42 oligomerization (thioflavin T fluorescence). The assay is classed as biochemical. The note with it: 50 μg/ml, 4° C., 24 hours, thioflavin T fluorescence (FIG. 2). How it is done:
Dried Human Aβ1-42 was taken out from the refrigerator and equilibrated to room temperature. Aβ1-42 was dissolved in 1,1,1,3,3,3-Hexa-fluro-2-propanol (HFIP) to a concentration of 1 mM, and was then placed at room temperature for one hour. The Aβ1-42/HFIP solution was aliquoted by Hamilton syringe, and was then dried under a stream of nitrogen gas, followed by storing at a temperature of −20° C. Aβ1-42 treated with HFIP was dissolved in PBS, and was vibration-incubated with treatment of each test sample at a concentration of 50 μg/ml and at 4° C. for 24 hours to prepare Aβ1-42 oligomers. The level of Aβ1-42 oligomerization was analyzed by thioflavin T fluorescence (Ex=450 nm, Em=482 nm). […] That is to say, these pharmaceutical compositions can be used to prevent or treat Aβ-associated diseases or conditions.

Entries after “also recorded” stand apart in the source; their conditions may differ.

These results are taken from US20150087606A1, “PHARMACEUTICAL COMPOSITION FOR PREVENTING OR TREATING AMYLOID BETA PEPTIDE-ASSOCIATED DISEASES OR CONDITIONS” (Sinphar Tian-Li Pharmaceutical Co., Ltd. (Hangzhou), priority 2011, published 2015).

Sequence of Human Aβ1-42 (P05067 672-713 limits assumed): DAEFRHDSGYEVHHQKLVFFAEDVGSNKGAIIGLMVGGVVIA

For the compound `C[C@@H]1O[C@@H](O[C@@H]2[C@@H](O)[C@H](OCCc3ccc(O)c(O)c3)O[C@H](COC(=O)/C=C/c3ccc(O)c(O)c3)[C@H]2O)[C@H](O)[C@H](O)[C@H]1O` [I, Isoacteoside], the “activity on reducing extracellular Aβ1-40 accumulation (in words)” value in assay [1] (total 50 μg/ml, 24 hours (FIG. 1)) is listed as “significant activity; also recorded: better activity”. For the same compound, the “activity on inhibiting Aβ1-42 oligomerization (in words)” value on Human Aβ1-42 was “better activity”.

As to `C[C@@H]1O[C@@H](O[C@@H]2[C@@H](O)[C@H](OCCc3ccc(O)c(O)c3)O[C@H](CO)[C@H]2OC(=O)/C=C/c2ccc(O)c(O)c2)[C@H](O)[C@H](O)[C@H]1O` [A, Acteoside], the “reduces the level of Aβ1-40 in the medium” value in assay [1] (total concentration of 50 μg/ml, 24 hours, based on Vehicle control group (FIG. 1)) is recorded as “about 10%”.
